# Experimental data as given in EP0052964A1, “Adenine derivatives possessing pharmacological activity” (BEECHAM GROUP PLC, priority 1980, dated 1982).
# Test system: male rats (Sprague-Dawley from Tuck's)
# Test: hypocholesterolaemic and hypotriglyceridaemic effects in rats fed a sucrose-rich semisynthetic diet containing 0.25% cholesterol
# Format: in vivo
# Conditions: percentage change from control values, compound at 0.1% in diet for 7 days
# Method: The hypocholesterolaemic and hypotriglyceridaemic effects of 6-amino-9-[(2-hydroxy-3-thiomorpholino)propyl]purine (Compound 1) and 6-amino-9-([2-hydroxy-3-(2,6-cis-dimethylmorpholino)]propyl)-purine (Compound 2) were assessed as follows.
# Groups of 8 male rats (Sprague-Dawley from Tuck's) weighing 80-100g were adapted to a sucrose-rich semisynthetic diet containing 0.25% cholesterol by progressive dilution over 7 days of a powdered commercially available diet (Oxoid). Compounds were then added to the semisynthetic diet at the level of 0.1% and these diets were fed for 7 days. The rats were then killed and the serum total cholesterol and triglyceride were measured by a Technicon Auto-Analyser. The results are expressed as percentage change from control values.
compound,measurement,setting,value
"Nc1ncnc2c1ncn2CC(O)CN1CCSCC1 (stereo not drawn) [Compound 1, 6-amino-9-[(2-hydroxy-3-thiomorpholino)propyl]-purine]",Liver wt. as % body wt.,,+1%
same,Serum Triglyceride,* = statistically significant,-8 percentage
same,Serum Cholesterol,"serum total cholesterol, * = statistically significant",-57* percentage
